Laboratory results from patent US20090130064A1, “DIFFERENTIATION OF STEM CELLS AND STABILIZATION OF PHENOTYPICAL PROPERTIES OF PRIMARY CELLS” (priority 2004, published 2009).

Tests used:
p21 = assay: Western blotting of p21 in primary rat hepatocytes; format: cell-based
Source text: Male outbred Sprague-Dawley rats (200-300 g, Iffa Credo, Brussels, Belgium) were kept under controlled environmental conditions (12-hr light-dark cycle) and fed a standard diet (Animafabo A04, water ad libitum). Hepatocytes were isolated by a two-step collagenase perfusion as described (De Smet et al. In ‘Methods in Molecular Biology, Vol. 107: Cytochrome P450 Protocols’, Philips I R and Shephard E A, eds., pp 295-301, Humana Press, Totowa, 1998). Cell liability was >90% as determined by trypan blue exclusion. Cells (0.4×10^5 cells/cm^2) were plated in MEM/M199 (3:1), containing BSA (1 mg/ml), bovine insulin (10 μg/ml), L-glutamine (2 mM), FBS (10% v/v) and antibiotics (7.3 IU/ml benzyl penicillin, 50 μg/ml streptomycin sulphate, 50 μg/ml kanamycin monosulphstep and 10 μg/ml sodium ampicillin). Four hours after plating, serum-containing medium was removed and fresh serum-free medium was added to the cultures. Culture medium was refreshed daily. […]
Total cell extracts were prepared as described previously (Papeleu et al. J Hepatol 39: 374-382, 2003) and proteins (25 or 50 μg per lane) were separated electrophoretically by SDS-PAGE and electroblotted onto nitrocellulose membranes (Amersham Pharmacia Biotech, Buckinghamshire, UK). […] Proteins were detected using the ECL detection system (Amersham Pharmacia Biotech, Buckinghamshire, UK) according to the manufacturer's recommendations.

primary rat hepatocytes = assay: Albumin secretion (ELISA) by primary rat hepatocyte cultures; format: cell-based
Experimental: Medium samples were collected at 72 hours of culture and analyzed for their albumin content by an enzyme-linked immunosorbent assay (ELISA) as described (Dunn et al. Biotechnol Prog 7: 237-245, 1991) Cell morphology was analyzed by light microscopy (×100). Pictures were taken using an Optiphot Nikon Phase Contrast microscope (Cetec, Brussels, Belgium).
Medium samples were collected at 72 hours of culture and analyzed for their albumin content by an enzyme-linked immunosorbent assay (ELISA) as described (Dunn et al. Biotechnol Prog 7: 237-245, 1991).

[1] = test system: freshly isolated rat hepatocytes; assay: Biotransformation in suspensions of freshly isolated rat hepatocytes; format: in vitro ADME
Experimental: Male outbred Sprague Dawley rats (Iffa Credo, Brussels, Belgium) weighing 200-300 g were used. The animals were kept under controlled environmental conditions (12 h light-dark cycle) and had free access to food (Animalabo A 04) and water. After intraperitoneal injection of Nembutal® (0.1 ml/kg body weight), hepatocytes were isolated as described by De Smet et al.. Cell integrity was evaluated by trypan blue exclusion, and was 88±3% (n=20). 5, 25 and 50 μM of both compounds were incubated with 2×10^6 hepatocytes/ml (final volume 3 ml) in HEPES buffer (pH 7.65, 37° C.) up to 6 h. Control samples were obtained by boiling the hepatocyte suspension for 2 min prior to the addition of substrate; cell-free controls contained the substrate in the incubation buffer without hepatocytes. At selected time intervals, 1.0 ml aliquots were submersed in liquid nitrogen to stop the biotransformation reaction.
After centrifugation (2000 g, 45 min, 4° C.) of the diluted microsomal samples, the clear supernatant was injected onto a HPLC column. Samples from incubations with hepatocytes were thawed on ice and centrifugated (120 g, 2 min). The supernatants (extracellular) were subjected to solid phase extraction (Waters Oasis™ HLB cartridges, Waters Corporation, Milford, Mass., USA), while cell pellets (intracellular) were ultrasonicated in 1 ml methanol and centrifugated (2000 g, 30 min, 4° C.). Separations ([…]) were performed by reversed-phase HPLC (Kontron chromatographic system, Milan, Italy) on a Discovery C18, 5 μm, 250×4.6 mm column (Supelco, Sigma-Aldrich, Bornem, Belgium). The mobile phase consisted of component A (0.1% (v/v) aqueous trifluoroacetic acid) and component B (0.1% (v/v) trifluoroacetic acid in acetonitrile). A linear gradient from 3 to 80% (v/v) B was used over 30 min at a flow rate of 1.0 ml/min. […]

rat hepatocytes = assay: LDH index (membrane damage) in rat hepatocyte suspensions; format: cell-based; details: concentrations up to 100 μM; 6 h
CYP 2B1/2 = CYP 2B1/2 activity (penthoxyresorufin conversion) in cultured rat hepatocytes; format: cell-based
Source text: Hepatocytes were isolated from male Sprague-Dawley rats by a two-step collagenase perfusion as described (De Smet et al. In ‘Methods in Molecular Biology, Vol. 107: Cytochrome P450 Protocols’, Philips IR and Shephard E A, eds., p.p 295-301, Humana Press, Totowa, 1998). Hepatocytes were cultivated in monolayer cultures with Willam's E Medium (WE) for 7 days. […] The maintenance of differentiation characteristics was studied after 2, 4, and 7 days (D2, D4, D7) of culture.
Phase I biotransformation was assessed by means of activity measurements of the microsomal cytochrome P450 (CYP) 1A1 and 2B1/2 iso-enzymes, using standard techniques known in the art (i.e., measuring conversion of ethoxyresorufin into hydroxyresorufin for CYP 1A1 and conversion of penthoxyresorufin to hydroxyresorufin for CYP 2B1/2) (Burke et al. Drug Metab Dispos 2:583-588, 1974). Microsomes were prepared from freshly isolated and hepatocytes cultured for 7 days according to Hales et al. (Biochem Pharmacol 26:555-556, 1977).

CN(C)c1ccc(C(=O)NCCCCC(=O)NO)cc1 [4-Me2N-BAVAH, 5-(4-dimethylaminobenzoyl)-aminovaleric acid hydroxamide]
p21 expression (p21; 50 μM 4-Me2N-BAVAH + EGF): completely inhibited | secretion of albumin into the culture medium compared with 1 μM TSA (primary rat hepatocytes; 50 μM 4-Me2N-BAVAH from day 0): significantly higher secretion of albumin | increase in albumin secretion (primary rat hepatocytes; 50 μM, 72 hours, versus untreated EGF-stimulated hepatocytes): 2.44±0.29 fold | time to full degradation ([1]; 50 μM, 2×10^6 hepatocytes/ml): more than 3 h | half-life in comparison to TSA ([1]; rat hepatocyte suspensions): longer half-life | cell viability (LDH leakage) of hepatocytes in suspension (rat hepatocytes): not toxic

CC(C=CC(=O)NO)=CC(C)C(=O)c1ccc(N(C)C)cc1 (stereo not drawn) [TSA]
p21 accumulation (p21; 1 μM TSA during liver perfusion and culture, 72 hours): complete absence of p21 accumulation | secretion of albumin versus cells isolated in absence of TSA (primary rat hepatocytes; 1 μM TSA in the collagenase perfusion solution): significantly higher secretion of albumin | activity of CYP 2B1/2 versus EtOH-treated controls (CYP 2B1/2; 1 μM TSA starting at 0 h or 4 h, day 4 and 7): significantly higher | CYP 2B1 Activity (CYP 2B1/2; 7-day conventionally cultured adult rat hepatocytes, 1 μm TSA): 4.1 ± 0.7 pmol resorufin/minute mg microsomal protein | time to complete metabolism / full degradation ([1]; 50 μM, 2×10^6 hepatocytes/ml): ≤ 40 min | cell viability (LDH leakage) of hepatocytes in suspension (rat hepatocytes): did not affect cell viability
